The structures appear in SMILES notation.

The conditions of the data set: [M+H]+; instrument: TW.
For `O=C(NC(=O)c1c(F)cccc1F)Nc1ccc(Cl)cc1` [Diflubenzuron], the “collision cross section (N2)” value amounted to 160.98 Å². Turning to `C[C@H]1c2cccc(O)c2C(=O)C2=C(O)[C@]3(O)C(=O)C(C(N)=O)=C(O)[C@@H](N(C)C)[C@@H]3[C@@H](O)[C@@H]21` [Doxycycline], the “collision cross section (N2)” value was determined as 197.4 Å². Next, `O=C(O)\C3=C\N(c2cc(N1CCN(CC)CC1)c(F)cc2C3=O)C4CC4` [Enrofloxacine]: 194.8 Å²; `CCOP(=O)(NC(C)C)Oc1ccc(S(C)(=O)=O)c(C)c1` (stereo unspecified) [Fenamiphos sulfone]: 179.48 Å²; `CC(Cc1ccc(O)cc1)NCC(O)c1cc(O)cc(O)c1` (stereo unspecified) [Fenoterol]: 180.4 Å². As for `CCOC(=O)NCCOc1ccc(Oc2ccccc2)cc1` [Fenoxycarb], the figure is 178.44 Å²; as for `CC(Oc1ccc(Oc2ccc(C(F)(F)F)cn2)cc1)C(=O)O` (stereo unspecified) [Fluazifop], 173.47 Å². Next, `Cc1c(Nc2ncccc2C(=O)O)cccc1C(F)(F)F` [Flunixin]: 159.1 Å²; `CC(C)Oc1cccc(NC(=O)c2ccccc2C(F)(F)F)c1` [Flutolanil]: 175.45 Å²; `COC(=O)C(C)N(C(=O)c1ccco1)c1c(C)cccc1C` (stereo unspecified) [Furalaxyl]: 167.15 Å². For `CCCN1C[C@H](C)[C@@H](O)[C@](C)(O)[C@@H](CC)OC(=O)[C@H](C)[C@@H](O[C@H]2C[C@@](C)(OC)[C@@H](O)[C@H](C)O2)[C@H](C)[C@@H](O[C@@H]2O[C@H](C)C[C@H](N(C)C)[C@H]2O)[C@](C)(O)C[C@H]1C` [Gamithromycin], the “collision cross section (N2)” value stood at 280.6 Å².

For `CC(Oc1ccc(Oc2ncc(C(F)(F)F)cc2Cl)cc1)C(=O)O` (stereo unspecified) [Haloxyfop], the “collision cross section (N2)” value was determined as 179.86 Å². `COP(=O)(OC)OC1=C(Cl)C2C=CCC12` (stereo unspecified) [Heptenophos]: the “collision cross section (N2)” value worked out at 144.04 Å². Next, `CCCCC(O)(Cn1cncn1)c1ccc(Cl)cc1Cl` (stereo unspecified) [Hexaconazole]: 171.26 Å²; `CC(C(=O)O)c1ccc(N2Cc3ccccc3C2=O)cc1` (stereo unspecified) [Indoprofen]: 166.4 Å²; `CC(C)c1ncc([N+](=O)[O-])n1C` [Ipronidazole]: 126.1 Å². As for `c1ccc([C@H]2CN3CCSC3=N2)cc1` [Levamisole], the figure is 138.2 Å²; as for `CON(C)C(=O)Nc1ccc(Cl)c(Cl)c1` [Linuron], 149.63 Å²; as for `CC#Cc1cc(C)nc(Nc2ccccc2)n1` [Mepanipyrim], 152.07 Å². Consider `CS(=O)(=O)c1ccc(C(=O)C2C(=O)CCCC2=O)c([N+](=O)[O-])c1` [Mesotrione], for which the “collision cross section (N2)” value is given as 175.66 Å².

`COCC(=O)N(c1c(C)cccc1C)C(C)C(=O)OC` (stereo unspecified) [Metalaxyl]: the “collision cross section (N2)” value was determined as 159.96 Å². Consider `COc1ccc2cc([C@H](C)C(=O)O)ccc2c1` [Naproxen], for which the “collision cross section (N2)” value is 147.1 Å². With `O=C(O)c1cccnc1Nc1cccc(C(F)(F)F)c1` [Niflumic acid], the “collision cross section (N2)” value came to 156.8 Å².

`CCN(Cc1ccc(Cl)nc1)/C(=C/[N+](=O)[O-])NC` [Nitenpyram]: the “collision cross section (N2)” value is recorded as 160.32 Å². On to `CO/C=C(/C(=O)OC)c1ccccc1COc1cccc(C(F)(F)F)n1` [Picoxystrobin], for which the “collision cross section (N2)” value stood at 177.5 Å². As for `C[C@]12C=CC(=O)C=C1CC[C@@H]1[C@@H]2C(=O)C[C@@]2(C)[C@H]1CC[C@]2(O)C(=O)CO` [Prednisone], the “collision cross section (N2)” value stood at 180.1 Å². In the case of `CC1=NNC(=O)N(/N=C/c2cccnc2)C1` [Pymetrozine], the “collision cross section (N2)” value turned out to be 150.71 Å². `CCCCCCCCSC(=O)Oc1cc(Cl)nnc1-c1ccccc1` [Pyridate]: the “collision cross section (N2)” value is recorded as 199.9 Å². Consider `O=C(O)c1c(Cl)ccc2cc(Cl)cnc12` [Quinclorac], for which the “collision cross section (N2)” value came out at 139.54 Å².

Consider `C=C1C[C@@]23CC[C@H]4[C@@](C)(CCC[C@@]4(C)C(=O)O)[C@@H]2CC[C@]1(O[C@@H]1O[C@H](CO)[C@@H](O)[C@H](O[C@@H]2O[C@H](CO)[C@@H](O)[C@H](O)[C@H]2O)[C@H]1O[C@@H]1O[C@H](CO)[C@@H](O)[C@H](O)[C@H]1O)C3` [Rebaudioside B], for which the “collision cross section (N2)” value is given as 261.19 Å².

Regarding `C=C1C[C@@]23CC[C@H]4[C@@](C)(CCC[C@@]4(C)C(=O)O[C@@H]4O[C@H](CO)[C@@H](O)[C@H](O)[C@H]4O)[C@@H]2CC[C@]1(O[C@@H]1O[C@H](CO)[C@@H](O)[C@H](O[C@@H]2O[C@H](CO)[C@@H](O)[C@H](O)[C@H]2O)[C@H]1O[C@@H]1O[C@@H](C)[C@H](O)[C@@H](O)[C@H]1O)C3` [Rebaudioside C], the “collision cross section (N2)” value is recorded as 299.49 Å². Take `C=C1C[C@@]23CC[C@H]4[C@@](C)(CCC[C@@]4(C)C(=O)O[C@@H]4O[C@H](CO)[C@@H](O)[C@H](O)[C@H]4O[C@@H]4O[C@H](CO)[C@@H](O)[C@H](O)[C@H]4O)[C@@H]2CC[C@]1(O[C@@H]1O[C@H](CO)[C@@H](O)[C@H](O)[C@H]1O[C@@H]1O[C@H](CO)[C@@H](O)[C@H](O)[C@H]1O)C3` [Rebaudioside E]: the “collision cross section (N2)” value was found to be 289.2 Å². Take `C=C1C[C@@]23CC[C@H]4[C@@](C)(CCC[C@@]4(C)C(=O)O[C@@H]4O[C@H](CO)[C@@H](O)[C@H](O)[C@H]4O)[C@@H]2CC[C@]1(O[C@@H]1O[C@H](CO)[C@@H](O)[C@H](O[C@@H]2O[C@H](CO)[C@@H](O)[C@H](O)[C@H]2O)[C@H]1O[C@@H]1OC[C@@H](O)[C@H](O)[C@H]1O)C3` [Rebaudioside F]: the “collision cross section (N2)” value was found to be 293.18 Å².

Turning to `C=C1C[C@@]23CC[C@H]4[C@@](C)(CCC[C@@]4(C)C(=O)O[C@@H]4O[C@H](CO)[C@@H](O)[C@H](O)[C@H]4O)[C@@H]2CC[C@]1(O[C@@H]1O[C@H](CO)[C@@H](O)[C@H](O)[C@H]1O)C3` [Rubusoside], the “collision cross section (N2)” value stood at 241.31 Å². As for `C=C1C[C@@]23CC[C@H]4[C@@](C)(CCC[C@@]4(C)C(=O)O[C@@H]4O[C@H](CO)[C@@H](O)[C@H](O)[C@H]4O)[C@@H]2CC[C@]1(O[C@@H]1O[C@H](CO)[C@@H](O)[C@H](O)[C@H]1O[C@@H]1O[C@H](CO)[C@@H](O)[C@H](O)[C@H]1O)C3` [Stevioside], the figure is 269.64 Å²; as for `COc1cc(NS(=O)(=O)c2ccc(N)cc2)nc(OC)n1` [Sulfadimethoxine], 166 Å²; as for `Nc1ccc(S(=O)(=O)Nc2nccs2)cc1` [Sulfathiazole], 148.2 Å². Next, `CC(C)(C)C(O)(CCc1ccc(Cl)cc1)Cn1cncn1` (stereo unspecified) [Tebuconazole]: 167.37 Å²; `CCOP(=S)(OCC)SCS(=O)(=O)C(C)(C)C` [Terbufos-sulfone]: 172.88 Å²; `CCNc1nc(Cl)nc(NC(C)(C)C)n1` [Terbuthylazine]: 153.48 Å². Turning to `N#C/N=C1\SCCN1Cc1ccc(Cl)nc1` [Thiacloprid], the “collision cross section (N2)” value is 154.84 Å².

(Values after the C3SDB collision cross section collection.)
